Data as given in US20130022558A1, “Methods For Imrproving the Appearance of Hyperpigmented Spot(s) and Skin Tone” (priority 2011, published 2013).

Tested on: hyperpigmented spots on facial skin
Experiment: In vivo testing for hyperpigmented spot reduction (melanin Spot Area Fraction, split face, image analysis)
Set-up: species or system human subjects
Settings: baseline to Week 8, Beijing, approx. January 21 to March 21; compared to the vehicle
From the text: The 270 subjects were screened according to inclusion/exclusion criteria which included the following:
Is willing to refrain from sun exposure by using supplied UV lotion and physical UV blocks, such as a hat, to avoid facial sunburn, tanning or wind burn.
• 1. […] Two hundred and seventy subjects were recruited for the study.

For `NC(=O)c1cccnc1` [naicinamide, niacinamide], the “effect on seasonal skin darkening, in words” value was “mitigated the effects of seasonal skin darkening”.
